Assay results: PubChem BioAssay AID330 (DTP/NCI, 2004)
“And” between values parts separate entries of the source, which are not always exact repeats. Equal values may be shown once. Toxic doses and inconclusive results are not listed.

System: P388 leukemia ip, CD2F1 mice, survival T/C
Assay: NCI In Vivo Anticancer Drug Screen. Data for tumor model P388 Leukemia (intraperitoneal) in CD2F1 (CDF1) mice
Details: endpoint: median survival time, higher = longer survival
How it was run: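 Mice carrying the transplanted tumor received test compound or vehicle. Survival was recorded in each group, and the value is the treated-group measurement divided by that of the vehicle-treated control group.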

[1] = dose: 50.0 mg/kg/injection, schedule: Q01DX009 (ip), vehicle: Klucel (hydroxypropylcellulose) (HPC)
[2] = dose: 100.0 mg/kg/injection, schedule: Q01DX009 (ip), vehicle: Klucel (hydroxypropylcellulose) (HPC)
[3] = dose: 100.0 mg/kg/injection, schedule: Q04DX003 (ip), vehicle: saline with Tween-80
[4] = dose: 200.0 mg/kg/injection, schedule: Q04DX003 (ip), vehicle: saline with Tween-80
[5] = dose: 50.0 mg/kg/injection, schedule: Q01DX005 (ip), vehicle: saline with Tween-80
[6] = dose: 100.0 mg/kg/injection, schedule: Q01DX005 (ip), vehicle: saline with Tween-80
[7] = dose: 50.0 mg/kg/injection, schedule: Q01DX009 (ip), vehicle: saline with Tween-80
[8] = dose: 100.0 mg/kg/injection, schedule: Q01DX009 (ip), vehicle: saline with Tween-80
[9] = dose: 200.0 mg/kg/injection, schedule: Q01DX009 (ip), vehicle: saline with Tween-80
[10] = dose: 6.25 mg/kg/injection, schedule: Q01DX009 (ip), vehicle: saline
[11] = dose: 50.0 mg/kg/injection, schedule: Q01DX005 (ip), vehicle: Klucel (hydroxypropylcellulose) (HPC)
[12] = dose: 100.0 mg/kg/injection, schedule: Q01DX005 (ip), vehicle: Klucel (hydroxypropylcellulose) (HPC)
[13] = dose: 200.0 mg/kg/injection, schedule: Q01DX005 (ip), vehicle: Klucel (hydroxypropylcellulose) (HPC)
[14] = dose: 12.5 mg/kg/injection, schedule: Q01DX009 (ip), vehicle: Klucel (hydroxypropylcellulose) (HPC)
[15] = dose: 25.0 mg/kg/injection, schedule: Q01DX009 (ip), vehicle: Klucel (hydroxypropylcellulose) (HPC)
[16] = dose: 60.0 mg/kg/injection, schedule: Q01DX005 (ip), vehicle: saline with Tween-80
[17] = dose: 120.0 mg/kg/injection, schedule: Q01DX005 (ip), vehicle: saline with Tween-80

Structure (SMILES): COc1ccc2c(NCCCCCCCCNc3c4ccccc4nc4cc(OC)ccc34)c3ccccc3nc2c1
- T/C (dose: 0.62 mg/kg/injection, schedule: Q01DX009 (ip), vehicle: other): 176 % of control
- T/C (dose: 3.75 mg/kg/injection, schedule: Q01DX009 (ip), vehicle: other): 157 % of control
- T/C (dose: 7.5 mg/kg/injection, schedule: Q01DX009 (ip), vehicle: other): 100 % of control

Structure (SMILES): CCN(CC)c1nc(/C=C\c2ccc(N(C)C)cc2)c2nccnc2n1
- T/C [1]: 95 % of control
- T/C [2]: 90 % of control
- T/C (dose: 200.0 mg/kg/injection, schedule: Q01DX009 (ip), vehicle: Klucel (hydroxypropylcellulose) (HPC)): 94 % of control

Structure (SMILES): c1ccc(C2SCC3COCN32)cc1 (stereo unspecified)
- T/C [3]: 97 % of control
- T/C [4]: 101 % of control
- T/C (dose: 400.0 mg/kg/injection, schedule: Q04DX003 (ip), vehicle: saline with Tween-80): 100 % of control

Structure (SMILES): CCCCSc1nc2ccc(N=Cc3ccccc3O)cc2s1
- T/C [1]: 103 % of control
- T/C [2]: 99 % of control

Structure (SMILES): COc1ccc2nc(N/N=C(/c3ccccc3)c3ccccn3)cc(C)c2c1
- T/C [5]: 107 % of control
- T/C [6]: 100 % of control
- T/C (dose: 200.0 mg/kg/injection, schedule: Q01DX005 (ip), vehicle: saline with Tween-80): 100 % of control

Structure (SMILES): O=C(O)C1=C(/C=C(/c2ccccc2)c2ccc(Cl)cc2)OCCC1
- T/C [7]: 90 % of control
- T/C [8]: 94 % of control
- T/C [9]: 105 % of control

Structure (SMILES): CC12COC(=O)CC1CCC1C2CCC2(C)C1CCC2(C)O (stereo unspecified)
- T/C [3]: 95 % of control
- T/C [4]: 104 % of control

Structure (SMILES): C/C(=N\NC(=O)c1ccccc1O)c1cccc(/C(C)=N/NC(=O)c2ccccc2O)n1
- T/C (dose: 3.12 mg/kg/injection, schedule: Q01DX009 (ip), vehicle: saline): 110 % of control
- T/C [10]: 114 % of control

Structure (SMILES): CCCCNc1nc(C(F)(F)F)nc2nc[nH]c12
- T/C [11]: 103 % of control
- T/C [12]: 94 % of control
- T/C [13]: 94 % of control

Structure (SMILES): O=C(NNC(=O)c1cccc(C(=O)NNC(=O)c2ccc(Cl)c(Cl)c2)n1)c1ccc(Cl)c(Cl)c1
- T/C [14]: 106 % of control and 98 % of control
- T/C [15]: 108 % of control and 95 % of control
- T/C [1]: 105 % of control and 122 % of control
- T/C [2]: 119 % of control

Structure (SMILES): C1=NC(C2CC2)c2ccc3c([nH]c4ccccc43)c2N1 (stereo unspecified)
- T/C (dose: 100.0 mg/kg/injection, schedule: Q04DX002 (ip), vehicle: Klucel (hydroxypropylcellulose) (HPC)): 101 % of control
- T/C (dose: 200.0 mg/kg/injection, schedule: Q04DX002 (ip), vehicle: Klucel (hydroxypropylcellulose) (HPC)): 90 % of control

Structure (SMILES): C/C(=N\NC(=O)c1cc(C)nc2ccc(Br)cc12)c1ccccc1O
- T/C [7]: 88 % of control
- T/C [8]: 94 % of control
- T/C [9]: 110 % of control

Structure (SMILES): O=C(O)CNc1ncnc2c1CCc1ccccc1-2
- T/C (dose: 100.0 mg/kg/injection, schedule: Q04DX002 (ip), vehicle: saline): 100 % of control
- T/C (dose: 200.0 mg/kg/injection, schedule: Q04DX002 (ip), vehicle: saline): 99 % of control
- T/C (dose: 400.0 mg/kg/injection, schedule: Q04DX002 (ip), vehicle: saline): 91 % of control

Structure (SMILES): O=C(NCCCl)Oc1ccc(F)cc1
- T/C [11]: 100 % of control
- T/C [12]: 100 % of control
- T/C [13]: 110 % of control

Structure (SMILES): Nc1ccc2cc(S(=O)(=O)O)c(N=Nc3ccc(-c4ccc(N=Nc5ccc(O)c(C(=O)O)c5)cc4)cc3)c(O)c2c1
- T/C [11]: 92 % of control
- T/C [12]: 97 % of control
- T/C [13]: 95 % of control

Structure (SMILES): NC1CC1N (stereo unspecified)
- T/C [10]: 101 % of control
- T/C (dose: 12.5 mg/kg/injection, schedule: Q01DX001 (ip), vehicle: saline): 107 % of control
- T/C (dose: 12.5 mg/kg/injection, schedule: Q01DX009 (ip), vehicle: saline): 101 % of control
- T/C (dose: 25.0 mg/kg/injection, schedule: Q01DX001 (ip), vehicle: saline): 107 % of control
- T/C (dose: 25.0 mg/kg/injection, schedule: Q01DX009 (ip), vehicle: saline): 100 % of control
- T/C (dose: 50.0 mg/kg/injection, schedule: Q01DX001 (ip), vehicle: saline): 101 % of control

Structure (SMILES): S=C1NCC[Se]1
- T/C (dose: 6.25 mg/kg/injection, schedule: Q01DX009 (ip), vehicle: DMSO): 103 % of control
- T/C (dose: 12.5 mg/kg/injection, schedule: Q01DX009 (ip), vehicle: DMSO): 105 % of control

Structure (SMILES): CC(C)(S)[C@H]1NC(=O)NC1=O
- T/C [11]: 99 % of control
- T/C [12]: 99 % of control
- T/C [13]: 103 % of control

Structure (SMILES): CC(=O)OC(CCCCCCCCCCCCC(C)C)CC(=O)O (stereo unspecified)
- T/C (dose: 8.13 mg/kg/injection, schedule: Q01DX005 (ip), vehicle: Klucel + Tween-80): 102 % of control
- T/C (dose: 16.25 mg/kg/injection, schedule: Q01DX005 (ip), vehicle: Klucel + Tween-80): 98 % of control
- T/C (dose: 32.5 mg/kg/injection, schedule: Q01DX005 (ip), vehicle: Klucel + Tween-80): 90 % of control
- T/C (dose: 65.0 mg/kg/injection, schedule: Q01DX005 (ip), vehicle: Klucel + Tween-80): 90 % of control

Structure (SMILES): Cc1ccc(NCc2ccccn2)nc1
- T/C [5]: 99 % of control
- T/C [6]: 89 % of control

Structure (SMILES): CCOC(=O)N1CCC23C=C(OC)C(=O)C=C2C1Cc1ccc(OC)c(O)c13 (stereo unspecified)
- T/C (dose: 100.0 mg/kg/injection, schedule: Q04DX002 (ip), vehicle: saline with Tween-80): 100 % of control
- T/C (dose: 200.0 mg/kg/injection, schedule: Q04DX002 (ip), vehicle: saline with Tween-80): 105 % of control
- T/C (dose: 400.0 mg/kg/injection, schedule: Q04DX002 (ip), vehicle: saline with Tween-80): 93 % of control

Structure (SMILES): O=[N+]([O-])c1ccc([O-])c([I+]c2ccccc2)c1
- T/C [14]: 94 % of control
- T/C [15]: 96 % of control
- T/C [1]: 89 % of control and 94 % of control

Structure (SMILES): CC(=O)OCC1OC(n2nc(-c3ccccc3)c(=O)n(-c3ccccc3)c2=O)C(OC(C)=O)C(OC(C)=O)C1OC(C)=O (stereo unspecified)
- T/C [3]: 110 % of control
- T/C [4]: 111 % of control

Structure (SMILES): O=C(Nc1ncc([N+](=O)[O-])s1)C(Cl)Cl
- T/C [1]: 118 % of control
- T/C [2]: 111 % of control

Structure (SMILES): C/C=C1\C[N+]2(C)C3CC1C(C[O-])(C(=O)OC)C2Cc1c3[nH]c2ccccc12 (stereo unspecified)
- T/C (dose: 0.75 mg/kg/injection, schedule: Q01DX005 (ip), vehicle: Klucel (hydroxypropylcellulose) (HPC)): 97 % of control
- T/C (dose: 1.5 mg/kg/injection, schedule: Q01DX005 (ip), vehicle: Klucel (hydroxypropylcellulose) (HPC)): 91 % of control
- T/C (dose: 3.0 mg/kg/injection, schedule: Q01DX005 (ip), vehicle: Klucel (hydroxypropylcellulose) (HPC)): 96 % of control
- T/C (dose: 6.0 mg/kg/injection, schedule: Q01DX005 (ip), vehicle: Klucel (hydroxypropylcellulose) (HPC)): 92 % of control

Structure (SMILES): O=c1[nH]c2c(c(=O)n1CC(O)CO)CCCC2 (stereo unspecified)
- T/C [16]: 104 % of control
- T/C [17]: 100 % of control
- T/C (dose: 240.0 mg/kg/injection, schedule: Q01DX005 (ip), vehicle: saline with Tween-80): 100 % of control

Structure (SMILES): CC1(C)C(=O)C2=C(OC3([Se]2)C(=O)C(C)(C)C(=O)C(C)(C)C3=O)C(C)(C)C1=O
- T/C (dose: 7.5 mg/kg/injection, schedule: Q01DX005 (ip), vehicle: Klucel (hydroxypropylcellulose) (HPC)): 100 % of control
- T/C (dose: 15.0 mg/kg/injection, schedule: Q01DX005 (ip), vehicle: Klucel (hydroxypropylcellulose) (HPC)): 107 % of control
- T/C (dose: 30.0 mg/kg/injection, schedule: Q01DX005 (ip), vehicle: Klucel (hydroxypropylcellulose) (HPC)): 107 % of control
- T/C (dose: 60.0 mg/kg/injection, schedule: Q01DX005 (ip), vehicle: Klucel (hydroxypropylcellulose) (HPC)): 99 % of control
- T/C (dose: 120.0 mg/kg/injection, schedule: Q01DX005 (ip), vehicle: Klucel (hydroxypropylcellulose) (HPC)): 102 % of control

Structure (SMILES): COC(=O)/C=c1/s/c(=C\C(C)=N)[nH]c1=O
- T/C [16]: 90 % of control
- T/C [17]: 89 % of control

Structure (SMILES): CCC(=O)/C=C/c1ccc(N(Cl)Cl)cc1
- T/C (dose: 25.0 mg/kg/injection, schedule: Q01DX001 (ip), vehicle: Klucel (hydroxypropylcellulose) (HPC)): 107 % of control
- T/C (dose: 50.0 mg/kg/injection, schedule: Q01DX001 (ip), vehicle: Klucel (hydroxypropylcellulose) (HPC)): 106 % of control
- T/C (dose: 100.0 mg/kg/injection, schedule: Q01DX001 (ip), vehicle: Klucel (hydroxypropylcellulose) (HPC)): 104 % of control
